From patent US20100210597A1, “C21-Deoxy Ansamycin Derivatives as Antitumor Agents” (priority 2007, published 2010)
In brackets after ≈: the same amount, converted by molar mass. Read-outs that look alike come from different tables or passages of the source.

Key:
[1] = Water solubility assay, thermodynamic measurement; assay type: physicochemical; conditions: 5% glucose, 6 hours, room temperature
Experimental: Thermodynamic Measurements: • The appropriate amounts of compound to make solutions of the compounds at 2, 5, 10 and or 20 mM were mixed with the appropriate amounts of 5% glucose and with DMSO in brown glass vials and shaken at room temperature on an IKA® vibrax VXR shaker. After 6 hours the resulting suspensions/solutions were centrifuged for 20 min at 13200 rpm. • Aliquots of the supernatant fluid were then analysed by an Agilent 1100 HPLC coupled to a Bruker Daltonics Esquire3000 electrospray mass spectrometer (for details see specific examples herein). Chromatography was achieved over a Phenomenex Hyperclone column, BDS C18 3u (150×4.6 mm), with a linear gradient of acetonitrile:water (40:60 to 100) over 11 min at 1 mL/min. UV absorbance was monitored at λ=258 and 280 nm. • All analyses were performed in triplicate and the solubilities of individual compounds calculated by comparing their solubility in 5% glucose with an assumed solubility of 100% in DMSO.
Solubility in 2% DMSO in PBS at each time point was determined by comparing total peak areas for each chromatogram with mean total peak area for chromatograms produced from the corresponding 6 hour DMSO solutions. (Mean total peak area in DMSO solutions was assumed to be equivalent to a 0.5 mM solution). The solubility of compound 17 was measured by a thermodynamic assay as described in the general methods.

Hsp90 = conditions: shown in WO2007/074347 (there compound 14); cited from earlier work
[2] = In vitro Caco-2 assay for cell permeability; assay type: in vitro ADME; conditions: human, Caco-2, pH 7.4, 10 uM, 2 hour incubation
Experimental: (§1) Caco-2 cells (ATCC Cat. # HTB-37) were grown on fibrillar collagen-coated, microporous, polycarbonate membranes in 24-well BioCaot™ insert plates. Following 5-day growth in Eagle's minimum essential medium supplemented with 10% FBS, the cells were exposed to BioCoat Enterocyte Differentiation Medium (BD, Cat. # 05496) for 2 days to induce enterocytic differentiation. Prior to dosing, the transepithelial electric resistance (TEER) of the Caco-2 cells in each well was measured to ensure the quality of the monolayers.
(§2) The stock solutions of test compounds were prepared at 3 mM in DMSO. Dosing solutions were prepared in the permeability assay buffer at 10 μm. The permeability assay buffer was Hank's balanced salt solution containing 10 mM HEPES at a pH of 7.4±0.2.
(§3) The Caco-2 cells were dosed with the test compounds on either apical side (for A-to-B permeation) or basolateral side (for B-to-A permeation) and incubated at 37° C. with 5% CO2 and 90% relative humidity. The testing for each compound was performed in duplicate. After 2 hour incubation, a 20-μL sample was taken from each of dosing solutions and both donor and receiver compartments. To ensure the validity of the Caco-2 assay, propranolol and vinblastine were used as a high- and a low- to medium-permeability positive control, respectively. Vinblastine also served as a P-gp substrate, tested in conjunction with a P-gp inhibitor, verapamil.
(§4) To quantify test compounds by LC/MS/MS, a related geldanamycin-like compound, 17-methoxyethylamino geldanamycin (Schnur et al., 1995), was used as the internal standard. The calculation of permeability of each compound involved only the concentration ratio of the same test compound, the concentration ratio was expressed in the peak area ratio of the test compound to the internal standard. The peak area ratio of each compound was derived by LC-MS/MS.
(§5) The apparent permeability coefficient Papp was calculated as below: […]
(§6) dCr: cumulative concentration in the receiver compartment in M. dt: duration of the assay (i.e., 7200 seconds). Vr: volume of the receiver compartment in cm^3. A: area of the cell monolayer (0.31 cm^2 for 24-well BioCoat™ plate). C0: concentration of the dosing solution in M.
(§7) The in vitro permeability of 20 and the parent 17 were assayed using caco-2 cells, as described in the general methods. All compounds were analysed at a concentration of 10 uM.

Caco-2 cells = assay: In vitro Caco-2 assay for cell permeability; assay type: in vitro ADME; conditions: 10 uM, 2 hour incubation
Experimental: as §1, §2, §3, §4, §5, §6, §7

[3] = In vivo pharmacokinetic assay in mice; design: species or system mouse; conditions: female CD-1 mice
Experimental: The test compound was prepared directly in endotoxin free water. A single dose of 10 mg/kg p.o. or 3 mg/kg i.v. was administered to groups of female CD1 mice (3 mice for each compound per time point). Dose volumes were 10 mL/kg for both oral and intravenous administration. At 4 minutes and 0.25, 0.5, 1, 2, 4, 8, 24 hours groups were sacrificed and plasma was collected from each mouse for further analysis. For oral dosing, a single dose of Test Article was administered via oral gavage to the mice. For intravenous dosing, a single dose of Test article was administered intravenously to mice via the tail veins.
The concentration of the relevant compounds in the plasma samples was determined by HPLC with MS detection.
• Mass spectrometer: API 3200 Q Trap triple quadruple mass spectrometer • Liquid chromatography: Agilent 1200/PAL HTC Autosampler • Ionization Mode: Electrospray (may be changed depending on the TA) • Monitoring: Multiple Reaction Monitoring • LC chromatography BetaBastic-8, 50×2.1 mm, 5 μm (may separation: be changed depending on the TA)
Based on the peak area ratios of test article to an internal standard, 17-Methoxyethylamino Geldanamycin (Schnur et al., 1995), concentrations of an unknown sample were obtained by a calibration curve.
Test plasma sample (0.05 ml), analyte free mouse whole serum (0.05 ml), internal standard solution (0.1 ml of 10 mg/mL 17-Methoxyethylamino geldanamycin (Schnur et al., 1995) dissolved in methanol) and acetonitrile (0.5 ml) were pipetted into a 2-mL polypropylene tube and the contents of the tubes were mixed for a minimum of 5 minutes (Vibrax mixer). The tubes were then centrifuged in a microfuge for a minimum of 2 minutes at 12,000 rpm. 0.1 ml of the solvent layer was transferred into a 2-mL polypropylene tube containing 1 mL acid diluent (0.1% formic acid). The tubes were then mixed for a minimum of 5 minutes (Vibrax mixer) and then centrifuged at approximately 3500 rpm for 5 minutes. The extracts were transferred to auto-sampler vials and placed in the auto sampler tray which was set at ambient temperature. The auto-sampler was programmed to inject a 0.005 ml aliquot of each extract onto the analytical column.
In vivo confirmation of the cleavage of 20 to the parent molecule, 17, was carried out as described in the general methods.
Female CD-1 mice were given single doses of 20, either intravenously at 3 mg/kg, or orally at 10 mg/kg. Plasma samples were then collected at 8 time points (0.067, 0.25, 0.5, 1, 2, 4, 8 and 24 h postdose) over a 24-h period. The amounts of 20 and 17 in the samples were then analysed. […] After iv administration, 20 was only detected up to 0.25 hours after dosing, whilst 17 was detected up to 4 hours after dosing.

For `CO[C@H]1C[C@H](C)Cc2cc(O)cc(c2)NC(=O)/C(C)=C/CC[C@H](C)[C@@H](OC(N)=O)/C(C)=C/[C@H](C)[C@H]1O` [Compound 17, 4,5-dihydro-11-O-demethyl-15-demethoxy-18,21-didehydro-21-deoxomacbecin], the solubility [1] is given as 716 µM (≈ 360 µg/mL), the Hsp90 inhibition (Hsp90) is given as “potent Hsp90 inhibitor” and the efflux ratio at 2 h, 10 uM ([2]; read-out: Efflux ratio Papp(B → A)/Papp(A → B)) is given as 6.8. It also gave a Papp A→B at 2 h, 10 uM ([2]; read-out: Permeability Apical to Basolateral Papp(A → B) Mean) of 0.44 ×10⁻⁶ cm/s, a Papp A→B at 2 h, 10 uM ([2]; read-out: Permeability Apical to Basolateral Papp(A → B) Rep. 1) of 0.39 ×10⁻⁶ cm/s and a Papp A→B at 2 h, 10 uM ([2]; read-out: Permeability Apical to Basolateral Papp(A → B) Rep. 2) of 0.49 ×10⁻⁶ cm/s. The Papp B→A at 2 h, 10 uM ([2]; read-out: Permeability Basolateral to Apical Papp(B → A) Mean) was 2.95 ×10⁻⁶ cm/s, the Papp B→A at 2 h, 10 uM ([2]; read-out: Permeability Basolateral to Apical Papp(B → A) Rep. 1) was 1.7 ×10⁻⁶ cm/s and the Papp B→A at 2 h, 10 uM ([2]; read-out: Permeability Basolateral to Apical Papp(B → A) Rep. 2) was 4.21 ×10⁻⁶ cm/s. The “Efflux Limited” value (Caco-2 cells) was “Yes (Papp (B → A)/Papp (A → B) ≧ 3, and Papp (B → A) ≧ 1.0 × 10^-6 cm/s)”, the “detected in plasma up to (time after dosing)” value ([3]; single intravenous dose of 20 at 3 mg/kg) was “up to 4 hours” and the “detected in plasma up to (time after dosing)” value ([3]; single oral dose of 20 at 10 mg/kg) was “up to 8 hours”.
